Measurements: patent US10472356B2, “Bicyclic ketone sulfonamide compounds” (AMGEN INC., priority 2015, dated 2019)

Key:
Type in all cases: cell-based
human Nav1.7 [1] = biological target: T1, human Nav1.7 (Homo sapiens, UniProt Q15858); test: Nav 1.7 IWB In Vitro Assay (IonWorks Barracuda); conditions: HEK293 cells stably transfected with human Nav 1.7; IonWorks Barracuda population patch-clamp; cells clamped to −20 mV for 4 minutes with compound; 26th pulse; read-out: hNav1.7 IWB IC50
T1 construct: expressed in transfected cells; host or cells: HEK293
T1 sequence (Q15858 whole entry): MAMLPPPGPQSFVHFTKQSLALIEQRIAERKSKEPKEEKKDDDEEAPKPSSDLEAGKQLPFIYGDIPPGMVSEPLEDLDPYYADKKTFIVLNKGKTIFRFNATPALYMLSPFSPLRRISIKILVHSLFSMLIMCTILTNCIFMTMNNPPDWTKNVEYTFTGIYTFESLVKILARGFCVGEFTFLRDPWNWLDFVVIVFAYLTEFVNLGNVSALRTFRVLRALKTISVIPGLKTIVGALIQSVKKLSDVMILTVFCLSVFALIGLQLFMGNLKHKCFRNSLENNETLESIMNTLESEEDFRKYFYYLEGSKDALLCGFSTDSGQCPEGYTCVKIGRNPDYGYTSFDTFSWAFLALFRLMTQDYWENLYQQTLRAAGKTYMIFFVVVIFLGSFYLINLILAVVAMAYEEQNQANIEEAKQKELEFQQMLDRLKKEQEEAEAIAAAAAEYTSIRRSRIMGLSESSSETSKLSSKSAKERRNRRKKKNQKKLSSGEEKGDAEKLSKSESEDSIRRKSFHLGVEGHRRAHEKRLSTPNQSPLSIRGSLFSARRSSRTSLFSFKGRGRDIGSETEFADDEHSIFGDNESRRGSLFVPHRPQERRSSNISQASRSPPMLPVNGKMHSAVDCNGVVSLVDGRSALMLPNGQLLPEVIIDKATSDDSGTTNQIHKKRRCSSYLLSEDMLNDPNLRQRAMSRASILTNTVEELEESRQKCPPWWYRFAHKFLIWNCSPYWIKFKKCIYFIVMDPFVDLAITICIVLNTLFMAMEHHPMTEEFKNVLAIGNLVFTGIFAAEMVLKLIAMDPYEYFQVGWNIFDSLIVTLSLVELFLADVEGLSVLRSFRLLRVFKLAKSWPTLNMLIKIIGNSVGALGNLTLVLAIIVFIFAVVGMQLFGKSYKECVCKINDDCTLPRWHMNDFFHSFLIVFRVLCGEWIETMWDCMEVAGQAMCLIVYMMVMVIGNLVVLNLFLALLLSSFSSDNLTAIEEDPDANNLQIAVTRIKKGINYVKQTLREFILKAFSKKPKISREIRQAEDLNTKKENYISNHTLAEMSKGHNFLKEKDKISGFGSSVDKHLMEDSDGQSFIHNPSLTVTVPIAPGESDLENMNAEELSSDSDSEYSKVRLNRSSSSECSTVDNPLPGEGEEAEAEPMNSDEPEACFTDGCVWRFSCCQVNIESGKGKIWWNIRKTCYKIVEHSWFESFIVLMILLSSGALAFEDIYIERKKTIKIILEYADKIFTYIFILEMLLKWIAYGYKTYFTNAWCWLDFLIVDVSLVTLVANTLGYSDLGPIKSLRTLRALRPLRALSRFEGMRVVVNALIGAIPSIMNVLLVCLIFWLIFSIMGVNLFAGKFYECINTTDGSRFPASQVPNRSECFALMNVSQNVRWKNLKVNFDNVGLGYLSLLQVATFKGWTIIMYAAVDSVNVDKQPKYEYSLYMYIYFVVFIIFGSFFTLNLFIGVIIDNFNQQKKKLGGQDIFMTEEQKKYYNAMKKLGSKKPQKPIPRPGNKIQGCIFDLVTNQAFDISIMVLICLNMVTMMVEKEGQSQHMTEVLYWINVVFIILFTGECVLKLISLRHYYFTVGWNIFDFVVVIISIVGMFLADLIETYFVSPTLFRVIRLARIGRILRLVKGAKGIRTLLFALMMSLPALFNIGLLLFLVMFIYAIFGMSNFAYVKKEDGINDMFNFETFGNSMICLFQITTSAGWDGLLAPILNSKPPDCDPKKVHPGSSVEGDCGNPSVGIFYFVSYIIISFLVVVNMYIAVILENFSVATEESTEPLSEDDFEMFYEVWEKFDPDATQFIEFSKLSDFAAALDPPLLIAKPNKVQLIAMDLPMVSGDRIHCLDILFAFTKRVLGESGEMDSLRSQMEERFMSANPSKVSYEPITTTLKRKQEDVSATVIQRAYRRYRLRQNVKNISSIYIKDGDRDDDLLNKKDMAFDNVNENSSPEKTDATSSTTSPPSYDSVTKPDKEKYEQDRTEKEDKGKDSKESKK
Procedure, shortened: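 Population patch clamp of HEK293 cells stably expressing human Nav 1.7: 26 pulses to −20 mV (150 ms, 5 Hz) from −110 mV, then 4 min at −20 mV with compound, 3 s recovery at −110 mV and the train repeated. % inhibition of 26th-pulse peak current vs no compound; IC50 from concentration-response curves.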

human Nav1.7 [2] = biological target: T1, human Nav1.7; test: Nav 1.7 IWQ In Vitro Assay (IonWorks Quattro); conditions: HEK293 cells stably transfected with human Nav 1.7; IonWorks Quattro population patch-clamp; 26th pulse to −20 mV, 5 Hz; cells unclamped 5 to 8 minutes with compound; read-out: hNav1.7 IWQ IC50
Procedure: Nav 1.7 or Nav 1.5 IWQ In Vitro Assay
HEK293 cells stably transfected with either human Nav 1.7 or human Nav 1.5 were recorded in population patch-clamp mode with the IonWorks® Quattro automated electrophysiology system (Molecular Devices, LLC, Sunnyvale, Calif.). Cells were voltage clamped to −110 mV for three seconds (Nav 1.7) or half a second (Nav 1.5) and sodium currents were elicited by a train of 26 depolarizations of 150 msec duration to −20 mV (Nav 1.7) or 0 mV (Nav 1.5) at a frequency of 5 Hz. Cells were then left unclamped for a period of 5 to 8 minutes while a single concentration of test compound was added. Following this compound incubation period, cells were then reclamped to −110 mV for three seconds (Nav1.7) or half a second (Nav1.5) to recover unbound channels and put through the same 26 pulse voltage protocol as above. Peak inward current during the 26th pulse to −20 mV (Nav 1.7) or 0 mV (Nav 1.5) in the presence of compound was divided by the peak inward current evoked by the 26th pulse to −20 mV (Nav1.7) or 0 mV (Nav1.5) in the absence of compound to determine percent inhibition. Concentration-response curves of percent.

human Nav1.7 [3] = biological target: T1, human Nav1.7; test: Nav 1.7 In Vitro PatchXpress (PX) Assay; conditions: HEK 293 cells stably transfected with human Nav1.7; PatchXpress whole cell voltage clamp; partially inactivated state (holding potential yielding 20 to 50% inactivation); read-out: hNav1.7 PX IC50
Procedure, shortened: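 Whole-cell voltage clamp on HEK 293 cells stably expressing human Nav1.7 (automated patch), holding potential giving 20–50% inactivation; 20 ms pulses to −10 mV at 0.1 Hz. Single compound concentration applied 3 min, peak current inhibition measured; IC50 fitted from 3–5 cells per concentration.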

Row | Compound | IC50 (human Nav1.7 [1]) | IC50 (human Nav1.7 [2]) | IC50 (human Nav1.7 [3])
1 | COc1cc(CCC(F)(F)F)c(Cl)cc1-n1c2c(ccc1=O)CN(S(=O)(=O)Nc1cccnn1)CC2 (single isomer, unassigned) [Example 96-P, P-1-(5-chloro-2-methoxy-4-(3,3,3-trifluoropropyl)phenyl)-2-oxo-N-(pyridazin-3-yl)-1,2,7,8-tetrahydro-1,6-naphthyridine-6(5H)-sulfonamide] | 33.9 nM | 9 nM | –
2 | COc1ccc(-c2cc(OC)c(-n3c4c(ccc3=O)CN(S(=O)(=O)Nc3cccnn3)CC4)cc2F)cc1Cl [Example 63, P-1-(3′-chloro-2-fluoro-4′,5-dimethoxy-[1,1′-biphenyl]-4-yl)-2-oxo-N-(pyridazin-3-yl)-1,2,7,8-tetrahydro-1,6-naphthyridine-6(5H)-sulfonamide] | 22.2 nM | – | 321 nM
3 | COc1cc(-c2ccc(C(F)(F)F)cc2)c(F)cc1-n1c2c(ccc1=O)CN(S(=O)(=O)Nc1cccnn1)CC2 [Example 67, P-1-(2-fluoro-5-methoxy-4′-(trifluoromethyl)-[1,1′-biphenyl]-4-yl)-2-oxo-N-(pyridazin-3-yl)-1,2,7,8-tetrahydro-1,6-naphthyridine-6(5H)-sulfonamide] | 20.5 nM | – | 75.8 nM
4 | COc1cc(-c2cc(C)cc(Cl)c2)c(F)cc1-n1c2c(ccc1=O)CN(S(=O)(=O)Nc1cccnn1)CC2 [Example 69, P-1-(3′-chloro-2-fluoro-5-methoxy-5′-methyl-[1,1′-biphenyl]-4-yl)-2-oxo-N-(pyridazin-3-yl)-1,2,7,8-tetrahydro-1,6-naphthyridine-6(5H)-sulfonamide] | 16.9 nM | – | 22.8 nM
5 | COc1cc(-c2cccc(C(F)F)c2)c(F)cc1-n1c2c(ccc1=O)CN(S(=O)(=O)Nc1cccnn1)CC2 [Example 72, P-1-(3′-(difluoromethyl)-2-fluoro-5-methoxy-[1,1′-biphenyl]-4-yl)-2-oxo-N-(pyridazin-3-yl)-1,2,7,8-tetrahydro-1,6-naphthyridine-6(5H)-sulfonamide] | 15.1 nM | – | 265 nM
6 | COc1cc(-c2ccc(F)c(C)c2)c(F)cc1-n1c2c(ccc1=O)CN(S(=O)(=O)Nc1cccnn1)CC2 [Example 73, P-1-(2,4′-difluoro-5-methoxy-3′-methyl-[1,1′-biphenyl]-4-yl)-2-oxo-N-(pyridazin-3-yl)-1,2,7,8-tetrahydro-1,6-naphthyridine-6(5H)-sulfonamide] | 18 nM | – | 232 nM
7 | COc1cc(-c2cc(C)cc(C(F)(F)F)c2)c(F)cc1-n1c2c(ccc1=O)CN(S(=O)(=O)Nc1cccnn1)CC2 [Example 75, P-1-(2-fluoro-5-methoxy-3′-methyl-5′-(trifluoromethyl)-[1,1′-biphenyl]-4-yl)-2-oxo-N-(pyridazin-3-yl)-1,2,7,8-tetrahydro-1,6-naphthyridine-6(5H)-sulfonamide] | 11.6 nM | – | 41.3 nM
8 | COc1cc(-c2cnc(OC)c(C(F)(F)F)c2)c(F)cc1-n1c2c(ccc1=O)CN(S(=O)(=O)Nc1cccnn1)CC2 [Example 80, P-1-(5-fluoro-2-methoxy-4-(6-methoxy-5-(trifluoromethyl)pyridin-3-yl)phenyl)-2-oxo-N-(pyridazin-3-yl)-1,2,7,8-tetrahydro-1,6-naphthyridine-6(5H)-sulfonamide] | 13.9 nM | 5.4 nM | –
9 | COc1cc(-c2ccc(F)c(OC(F)(F)F)c2)c(F)cc1-n1c2c(ccc1=O)CN(S(=O)(=O)Nc1cccnn1)CC2 [Example 81, P-1-(2,4′-difluoro-5-methoxy-3′-(trifluoromethoxy)-[1,1′-biphenyl]-4-yl)-2-oxo-N-(pyridazin-3-yl)-1,2,7,8-tetrahydro-1,6-naphthyridine-6(5H)-sulfonamide] | 8.6 nM | 3.9 nM | –
10 | COc1cc(-c2ccc(OC)c(C(F)(F)F)c2)c(F)cc1-n1c2c(ccc1=O)CN(S(=O)(=O)Nc1cccnn1)CC2 [Example 82, P-1-(2-fluoro-4′,5-dimethoxy-3′-(trifluoromethyl)-[1,1′-biphenyl]-4-yl)-2-oxo-N-(pyridazin-3-yl)-1,2,7,8-tetrahydro-1,6-naphthyridine-6(5H)-sulfonamide] | 25.8 nM | 15.6 nM | –
11 | COc1cc(-c2cc(F)cc(F)c2)c(F)cc1-n1c2c(ccc1=O)CN(S(=O)(=O)Nc1ccncn1)CC2 [Example 88, P-2-oxo-N-(pyrimidin-4-yl)-1-(2,3′,5′-trifluoro-5-methoxy-[1,1′-biphenyl]-4-yl)-1,2,7,8-tetrahydro-1,6-naphthyridine-6(5H)-sulfonamide] | 31.2 nM | – | 475 nM

The remaining molecules from weak to strong by IC50 (human Nav1.7 [1]), led by results:

Row | IC50 (human Nav1.7 [1]) | IC50 (human Nav1.7 [2]) | IC50 (human Nav1.7 [3]) | Compound
12 | 8.6 nM | – | 75.8 nM | COc1cc(-c2cccc(Cl)c2)c(F)cc1-n1c2c(ccc1=O)CN(S(=O)(=O)Nc1cccnn1)CC2 [Example 62, P-1-(3′-chloro-2-fluoro-5-methoxy-[1,1′-biphenyl]-4-yl)-2-oxo-N-(pyridazin-3-yl)-1,2,7,8-tetrahydro-1,6-naphthyridine-6(5H)-sulfonamide]
13 | 8.5 nM | – | 251 nM | COc1cc(-c2cccc(Cl)c2OC)c(F)cc1-n1c2c(ccc1=O)CN(S(=O)(=O)Nc1cccnn1)CC2 [Example 65, P-1-(3′-chloro-2-fluoro-2′,5-dimethoxy-[1,1′-biphenyl]-4-yl)-2-oxo-N-(pyridazin-3-yl)-1,2,7,8-tetrahydro-1,6-naphthyridine-6(5H)-sulfonamide]
14 | 7.7 nM | – | 29.4 nM | COc1ccc(C(F)(F)F)cc1-c1cc(OC)c(-n2c3c(ccc2=O)CN(S(=O)(=O)Nc2cccnn2)CC3)cc1F [Example 74, P-1-(2-fluoro-2′,5-dimethoxy-5′-(trifluoromethyl)-[1,1′-biphenyl]-4-yl)-2-oxo-N-(pyridazin-3-yl)-1,2,7,8-tetrahydro-1,6-naphthyridine-6(5H)-sulfonamide]
15 | 6.2 nM | – | 20 nM | COc1cc(Cl)cc(-c2cc(OC)c(-n3c4c(ccc3=O)CN(S(=O)(=O)Nc3cccnn3)CC4)cc2F)c1 [Example 70, P-1-(3′-chloro-2-fluoro-5,5′-dimethoxy-[1,1′-biphenyl]-4-yl)-2-oxo-N-(pyridazin-3-yl)-1,2,7,8-tetrahydro-1,6-naphthyridine-6(5H)-sulfonamide]
16 | 5.3 nM | – | 44.5 nM | COc1cc(-c2cc(C)cc(OC(F)(F)F)c2)c(F)cc1-n1c2c(ccc1=O)CN(S(=O)(=O)Nc1cccnn1)CC2 [Example 78, P-1-(2-fluoro-5-methoxy-3′-methyl-5′-(trifluoromethoxy)-[1,1′-biphenyl]-4-yl)-2-oxo-N-(pyridazin-3-yl)-1,2,7,8-tetrahydro-1,6-naphthyridine-6(5H)-sulfonamide]
17 | 5.1 nM | 3.4 nM | – | COc1cc(-c2cc(OC)c(-n3c4c(ccc3=O)CN(S(=O)(=O)Nc3cccnn3)CC4)cc2F)cc(C(F)(F)F)c1 [Example 83, P-1-(2-fluoro-3′,5-dimethoxy-5′-(trifluoromethyl)-[1,1′-biphenyl]-4-yl)-2-oxo-N-(pyridazin-3-yl)-1,2,7,8-tetrahydro-1,6-naphthyridine-6(5H)-sulfonamide]
18 | 4.2 nM | – | 38.8 nM | COc1cc(OC(F)(F)F)cc(-c2cc(OC)c(-n3c4c(ccc3=O)CN(S(=O)(=O)Nc3cccnn3)CC4)cc2F)c1 [Example 76, P-1-(2-fluoro-3′,5-dimethoxy-5′-(trifluoromethoxy)-[1,1′-biphenyl]-4-yl)-2-oxo-N-(pyridazin-3-yl)-1,2,7,8-tetrahydro-1,6-naphthyridine-6(5H)-sulfonamide]
19 | 2.6 nM | 3.9 nM | – | COc1cc(-c2cc(F)c(F)c(OC)c2)c(F)cc1-n1c2c(ccc1=O)CN(S(=O)(=O)Nc1cccnn1)CC2 [Example 79, P-2-oxo-N-(pyridazin-3-yl)-1-(2,3′,4′-trifluoro-5,5′-dimethoxy-[1,1′-biphenyl]-4-yl)-1,2,7,8-tetrahydro-1,6-naphthyridine-6(5H)-sulfonamide]
20 | 1.9 nM | – | 66.1 nM | COc1cc(-c2cc(C(F)(F)F)cnc2OC)c(F)cc1-n1c2c(ccc1=O)CN(S(=O)(=O)Nc1cccnn1)CC2 [Example 64, P-1-(5-fluoro-2-methoxy-4-(2-methoxy-5-(trifluoromethyl)pyridin-3-yl)phenyl)-2-oxo-N-(pyridazin-3-yl)-1,2,7,8-tetrahydro-1,6-naphthyridine-6(5H)-sulfonamide]
